A short description of experiment [1]: Neuroprotective activity against 0.1 uM amyloid beta 42-induced toxicity in rat PC12 cells assessed as cell viability at 10 uM after 24 hrs by MTT assay. The experiment is classed as functional, PC-12. A general note: Formazan colour is commonly taken as a measure of viable cells.
Experiment [2] in a line: Neuroprotective activity against 0.1 uM amyloid beta 42-induced toxicity in rat PC12 cells assessed as cell viability after 24 hrs by MTT assay. The experiment is classed as functional, cell-based. The note with it: PC-12, 24 h.
A short description of experiment [3]: Neuroprotective activity against 0.1 uM amyloid beta 42-induced toxicity in rat PC12 cells assessed as cell viability at 50 uM after 24 hrs by MTT assay. Type of experiment: functional, PC-12.

Structures are written as SMILES.

For `COc1cc(O)c2c(=O)cc(-c3ccc(O)c(-c4c(OC)cc(O)c5c(=O)cc(-c6ccc(O)cc6)oc45)c3)oc2c1`, the Activity in experiment [1] is recorded as 52.6%.

Regarding `COc1cc(O)c2c(=O)cc(-c3ccc(OC)c(-c4c(OC)cc(O)c5c(=O)cc(-c6ccc(O)cc6)oc45)c3)oc2c1`, the Activity in experiment [1] was found to be 65.3%.

Regarding `COc1ccc(-c2cc(=O)c3c(O)cc(O)cc3o2)cc1-c1c(OC)cc(O)c2c(=O)cc(-c3ccc(O)cc3)oc12`, the Activity in experiment [1] was 56.5%.

As for `COc1ccc(-c2cc(=O)c3c(O)cc(OC)c(-c4c(OC)cc(O)c5c(=O)cc(-c6ccc(OC)cc6)oc45)c3o2)cc1`, the Activity in experiment [1] came to 46.7%.

Take `COc1cc2oc(-c3ccc(O)cc3)cc(=O)c2c(O)c1-c1cc(-c2cc(=O)c3c(O)cc(O)cc3o2)ccc1O`: the Activity in experiment [1] came to 38.5%.

As for `COc1cc2oc(-c3ccc(O)cc3)cc(=O)c2c(O)c1Oc1ccc(-c2cc(=O)c3c(O)cc(O)cc3o2)cc1`, the Activity in experiment [1] came to 65.7%.

Take `COc1cc(O)c2c(=O)cc(-c3ccc(Oc4c(OC)cc5oc(-c6ccc(O)cc6)cc(=O)c5c4O)cc3)oc2c1`: in experiment [1], the Activity is 55.5%.

On to `COc1ccc(-c2cc(=O)c3c(O)cc(OC)c(-c4cc(-c5cc(=O)c6c(O)cc(OC)cc6o5)ccc4OC)c3o2)cc1`, for which the Activity in experiment [1] was 49.9%.

`COc1ccc(-c2cc(=O)c3c(O)cc(OC)c(-c4cc(-c5cc(=O)c6c(O)cc(O)cc6o5)ccc4O)c3o2)cc1` [7'',4'''-dimethylamentoflavone]: the Activity in experiment [1] stood at 55.3%.

On to `O=c1cc(-c2ccc(O)c(-c3c(O)cc(O)c4c(=O)cc(-c5ccc(O)cc5)oc34)c2)oc2cc(O)cc(O)c12` [AMENTOFLAVONE], for which, in experiment [1], the Activity stood at 37.6%.

On to `O=c1cc(-c2ccc(O)cc2)oc2cc(O)cc(O)c12` [APIGENIN], for which the Activity in experiment [1] is on record as 41%.

Regarding `COc1ccc(-c2cc(=O)c3c(O)cc(O)cc3o2)cc1-c1c(O)cc(O)c2c(=O)cc(-c3ccc(O)cc3)oc12` [BILOBETIN], in experiment [1], the Activity amounted to 44.7%.

As to `O=c1cc(-c2ccc(O)cc2)oc2c(-c3c(O)cc(O)c4c(=O)cc(-c5ccc(O)cc5)oc34)c(O)cc(O)c12` [CUPRESSUFLAVONE], the Activity in experiment [1] was 31.7%.

With `O=C(O[C@@H]1Cc2c(O)cc(O)cc2O[C@@H]1c1cc(O)c(O)c(O)c1)c1cc(O)c(O)c(O)c1` [EPIGALOCATECHIN GALLATE], in experiment [1], the Activity was 49.5%.

With `COc1cc(O)c2c(=O)cc(-c3ccc(OC)c(-c4c(O)cc(O)c5c(=O)cc(-c6ccc(O)cc6)oc45)c3)oc2c1` [GINKGETIN], the Activity in experiment [1] is listed as 59.8%.

For the molecule `COc1ccc(-c2cc(=O)c3c(O)cc(OC)c(-c4cc(-c5cc(=O)c6c(O)cc(OC)cc6o5)ccc4O)c3o2)cc1` [HEVEAFLAVONE], in experiment [1], the Activity was found to be 45.1%.

Consider `O=c1cc(-c2ccc(Oc3c(O)cc4oc(-c5ccc(O)cc5)cc(=O)c4c3O)cc2)oc2cc(O)cc(O)c12` [HINOKIFLAVONE], for which the Activity in experiment [1] is given as 38.7%.

The EC50 is the concentration at which the effect is half-maximal. Consider `COc1ccc(-c2cc(=O)c3c(O)cc(O)c(-c4cc(-c5cc(=O)c6c(O)cc(O)cc6o5)ccc4OC)c3o2)cc1` [ISOGINKGETIN], for which the Activity in experiment [1] was determined as 83.1%. In addition, the EC50 in experiment [2] worked out at 5.18 µM.

As for `COc1ccc(-c2cc(=O)c3c(O)cc(OC)c(-c4cc(-c5cc(=O)c6c(O)cc(O)cc6o5)ccc4OC)c3o2)cc1` [KAYAFLAVONE], the Activity in experiment [1] was determined as 80.5%; in experiment [3] it was 100%. Besides, the EC50 in experiment [2] was 5.29 µM.

Regarding `COc1ccc(-c2cc(=O)c3c(O)cc(O)c(-c4cc(-c5cc(=O)c6c(O)cc(O)cc6o5)ccc4O)c3o2)cc1` [PODOCARPUSFLAVONE A], the Activity in experiment [1] is given as 49.3%.

Consider `COc1ccc(-c2cc(=O)c3c(O)cc(O)c(-c4cc(-c5cc(=O)c6c(O)cc(OC)cc6o5)ccc4O)c3o2)cc1` [PODOCARPUSFLAVONE B], for which the Activity in experiment [1] worked out at 76.4%. For the same molecule, the EC50 in experiment [2] was found to be 10.8 µM.

Take `COc1ccc(-c2cc(=O)c3c(O)cc(O)c(-c4cc(-c5cc(=O)c6c(O)cc(OC)cc6o5)ccc4OC)c3o2)cc1` [SCIADOPITISIN]: the Activity was 83.1% in experiment [1] and 100% in experiment [3]. Moreover, the EC50 in experiment [2] was 9.84 µM.

In the case of `COc1cc(O)c2c(=O)cc(-c3ccc(O)c(-c4c(O)cc(O)c5c(=O)cc(-c6ccc(O)cc6)oc45)c3)oc2c1` [SEQUOIAFLAVONE], in experiment [1], the Activity came to 39.3%.

Turning to `COc1cc(O)c2c(=O)cc(-c3ccc(O)cc3)oc2c1-c1cc(-c2cc(=O)c3c(O)cc(O)cc3o2)ccc1O` [SOTETSUFLAVONE], the Activity in experiment [1] was 34.2%.

The values above are taken from ChEMBL document CHEMBL3588767, “Inhibitory activities of biflavonoids against amyloid-β peptide 42 cytotoxicity in PC-12 cells” (Bioorg Med Chem Lett, 2015).
